# Source: article PMC10495264 (Nature Cell Biology, 2023)
# “And” between values parts separate entries of the source, which are not always exact repeats. Identical values can stand only once.
# Columns and labels:
# [1] = biological target: T1, mTORC1 (Homo sapiens, UniProt P42345); assay: Mammalian mTORC1 kinase activity assays (IVK, 4E-BP1 substrate); type: biochemical
# T1 construct: endogenous mTORC1 complexes were purified from HEK293FT cells; endogenous in cells; host or cells: HEK293FT (immunoprecipitation of endogenous mTOR); the 4E-BP1 substrate was made in E. coli BL21 RP
# Protocol: Following the last wash step with CHAPS IP wash buffer, the beads were washed once with kinase wash buffer (25 mM HEPES pH 7.4 and 20 mM KCl) and excess liquid was removed using a Hamilton syringe—the final bead volume was approximately 10 μl. Kinase reactions were prepared by adding 10 μl of 3×kinase assay buffer (75 mM HEPES KOH pH 7.4, 60 mM KCl and 30 mM MgCl2) to the beads. […] The reactions were incubated at 30 °C for 30 min, and stopped by the addition of one volume of 2×SDS loading buffer and boiling (5 min, 95 °C). […] Signals were quantified using the gel analysis tool of ImageJ and are shown as the phospho-4E-BP1^T37/46/4E-BP1 ratio.
# [2] = biological target: T2, Src (Homo sapiens, UniProt P12931); assay: Mammalian Src kinase activity assay (IVK, Glo1 substrate); type: biochemical; details: for In vitro kinase assay Src, p-Glo(Y316)/Glo, Mean: 0 mM = 1; for In vitro kinase assay Src, p-Glo(Y316)/Glo: Replicates 1-3, 0 mM = 1 (Ext. Fig. 10g)
# T2 construct: purchased ProQinase 0200-0000-1
# Protocol: In vitro assays for phosphorylation of Glo1 by Src were performed as described previously. […] The phosphorylation reaction was stopped by the addition of 2×Laemmli buffer and boiling the samples for 5 min at 95 °C. The samples were run on SDS–PAGE gels and immunoblotted for Src-dependent phosphorylation of Glo1 at Y316 using a homemade antibody.
# [3] = test system: total protein malonylation; assay: Lysine malonylation in yeast cells, Mal-K/Adh1 immunoblot; type: cell-based, Saccharomyces cerevisiae; details: cerulenin 20 μM, 2 h, wt Ctrl = 1, Fig. 3i
# [4] = test system: mTORC1; assay: mTORC1 activity in MCF-7 cells, p-S6K^T389/S6K immunoblot; type: cell-based, human; details: cerulenin 50 μM 2 or 4 h
# [5] = test system: TORC2; assay: TORC2 activity in yeast cells, p-Ypk1^T662/Ypk1 immunoblot; type: cell-based, Saccharomyces cerevisiae; details: cerulenin 20 μM, 2 h; for p-Ypk1(T662)/Ypk1, Mean: wt Ctrl = 1, Fig. 3f
# [6] = test system: HEK293T cells; assay: OPP incorporation assay (de novo protein synthesis); type: cell-based, human; details: cerulenin 50 μM, 4 h
# Protocol: An OPP incorporation assay was used to test for de novo protein synthesis. […] The cells were subsequently washed with DPBS, trypsinized and fixed with ice-cold 70% ethanol for 30 min at −20 °C, followed by three washes with PBS containing 0.5% Tween-20. […] The samples were run in a Guava easyCyte HT flow cytometer (Millipore) and analysed using FlowJo (v10).
# [7] = test system: FASN, ACC1 and mTOR total protein levels; assay: FASN, ACC1 and mTOR total protein levels, immunoblot; type: cell-based, human
# Protocol: For standard SDS–PAGE and immunoblotting experiments, cells from a well of a 12-well plate were lysed in 250 μl of ice-cold Triton lysis buffer (50 mM Tris pH 7.5, 1% Triton X-100, 150 mM NaCl, 50 mM NaF, 2 mM Na-vanadate and 0.011 g ml^−1 β-glycerophosphate) supplemented with 1×PhosSTOP phosphatase inhibitors (cat. no. 4906837001, Roche) and 1×cOmplete protease inhibitors (cat. no. 11836153001, Roche) for 10 min on ice. The samples were clarified by centrifugation (20,000g, 15 min, 4 °C) and the supernatants were boiled in 1×SDS sample buffer (5×SDS sample buffer: 350 mM Tris–HCl pH 6.8, 30% glycerol, 600 mM DTT, 12.8% SDS and 0.12% bromophenol blue). The band intensities were quantified using the ImageJ software.
# Data in graphs are shown as the mean ± s.e.m. *P < 0.05, **P < 0.005, ***P < 0.0005. Source numerical data and unprocessed blots are provided. Source data
# [8] = test system: Mal-CoA levels; assay: fapR/fapOp-yeGFP Mal-CoA reporter system, GFP immunoblot; type: cell-based, Saccharomyces cerevisiae; details: yeast, untreated = 1, n = 4, Fig. 2b
# [9] = test system: mTOR and FASN malonylation; assay: Malonylation of immunopurified mTOR and FASN (anti-Mal-K) from HEK293FT cells; type: cell-based, human
# Protocol: Protein malonylation was assayed by immunoblotting using a Mal-K-specific antibody.
# [10] = test system: Tor1 and Fas1 malonylation; assay: Malonylation of immunopurified HA-Tor1 and Fas1-HA (anti-Mal-K) from yeast cells; type: cell-based, Saccharomyces cerevisiae
# Protocol: For the yeast co-immunoprecipitations experiments, cells were collected by filtration and immediately frozen in liquid nitrogen. […] Total cell extracts were recovered from the beads and cleared by centrifugation. At this stage, samples were taken for input analysis and denatured with a Laemmli-based sample buffer (350 mM Tris–HCl pH 6.8, 30% glycerol, 600 mM DTT, 10% SDS and 0.2 mg ml^−1 bromophenol blue). The cleared lysates (10–20 mg) were incubated for 2 h at 4 °C with magnetic beads pre-conjugated with anti-HA (cat. no. 88837, Pierce). The beads were then washed five times with high salt lysis buffer (50 mM Tris–HCl pH 7.5, 300 mM NaCl, 10% glycerol and 0.1% Nonidet P40) and eventually resuspended in 20 μl lysis buffer and 20 μl 2×Laemmli buffer.
# T2 sequence (P12931 whole entry): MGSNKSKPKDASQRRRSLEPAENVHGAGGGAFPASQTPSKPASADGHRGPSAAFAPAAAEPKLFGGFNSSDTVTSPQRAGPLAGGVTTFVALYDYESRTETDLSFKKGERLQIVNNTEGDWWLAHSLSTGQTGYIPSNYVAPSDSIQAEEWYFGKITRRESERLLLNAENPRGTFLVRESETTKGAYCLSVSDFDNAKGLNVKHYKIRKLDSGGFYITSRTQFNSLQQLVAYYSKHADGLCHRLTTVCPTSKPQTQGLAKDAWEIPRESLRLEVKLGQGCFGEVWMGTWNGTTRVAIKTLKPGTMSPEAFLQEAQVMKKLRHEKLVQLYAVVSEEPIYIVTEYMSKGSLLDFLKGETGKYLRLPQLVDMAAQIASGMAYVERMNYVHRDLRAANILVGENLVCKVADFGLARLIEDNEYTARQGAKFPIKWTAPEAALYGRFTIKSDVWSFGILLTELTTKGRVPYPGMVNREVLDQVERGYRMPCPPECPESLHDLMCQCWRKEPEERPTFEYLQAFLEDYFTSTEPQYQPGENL
structure (smiles),measurement,setting,value
"CC(C)(COP(=O)(O)OP(=O)(O)OCC1OC(n2cnc3c(N)ncnc32)C(O)C1OP(=O)(O)O)C(O)C(=O)NCCC(=O)NCCSC(=O)CC(=O)O (stereo not drawn) [Mal-CoA, malonyl-CoA]",IC50,[1],230 µM
same,"In vitro mTORC1 assay, p-4E-BP1(T37/46)/4E-BP1, Mean","[1]; Fig. 8f, compound 0.01 mM, relative to 0 mM",0.741
same,"In vitro mTORC1 assay, p-4E-BP1(T37/46)/4E-BP1, Mean","[1]; Fig. 8f, compound 0.05 mM, relative to 0 mM",0.7667
same,"In vitro mTORC1 assay, p-4E-BP1(T37/46)/4E-BP1, Mean","[1]; Fig. 8f, compound 0.1 mM, relative to 0 mM",0.821
same,"In vitro mTORC1 assay, p-4E-BP1(T37/46)/4E-BP1, Mean","[1]; Fig. 8f, compound 0.5 mM, relative to 0 mM",0.5457
same,"In vitro mTORC1 assay, p-4E-BP1(T37/46)/4E-BP1, Mean","[1]; Fig. 8f, compound 1 mM, relative to 0 mM",0.5376
same,"In vitro mTORC1 assay, p-4E-BP1(T37/46)/4E-BP1, Mean","[1]; Fig. 8f, compound 2.5 mM, relative to 0 mM",0.4196
same,"In vitro mTORC1 assay, p-4E-BP1(T37/46)/4E-BP1, Mean","[1]; Fig. 8f, compound 5 mM, relative to 0 mM",0.4175
same,"In vitro mTORC1 assay, p-4E-BP1(T37/46)/4E-BP1, Mean","[1]; Fig. 8j, Mal-CoA 2 mM, ATP 0 uM, relative to control at 500 uM ATP",0.1107
same,"In vitro mTORC1 assay, p-4E-BP1(T37/46)/4E-BP1, Mean","[1]; Fig. 8j, Mal-CoA 2 mM, ATP 25 uM, relative to control at 500 uM ATP",0.133
same,"In vitro mTORC1 assay, p-4E-BP1(T37/46)/4E-BP1, Mean","[1]; Fig. 8j, Mal-CoA 2 mM, ATP 100 uM, relative to control at 500 uM ATP",0.267
same,"In vitro mTORC1 assay, p-4E-BP1(T37/46)/4E-BP1, Mean","[1]; Fig. 8j, Mal-CoA 2 mM, ATP 500 uM, relative to control at 500 uM ATP",0.681
same,"In vitro mTORC1 assay, p-4E-BP1(T37/46)/4E-BP1, Mean","[1]; Fig. 8j, Mal-CoA 2 mM, ATP 2000 uM, relative to control at 500 uM ATP",1.021
same,"In vitro mTORC1 assay, p-4E-BP1(T37/46)/4E-BP1, Mean","[1]; Fig. 8j, Mal-CoA 2 mM, ATP 5000 uM, relative to control at 500 uM ATP",1.149
same,Ki,"[1]; read-out: Ki (ATP-competitive, human mTORC1)",770 µM
same,IC50,[2],3040 µM
same,"In vitro kinase assay Src, p-Glo(Y316)/Glo, Mean",[2]; Mal-CoA 0.1 mM,0.9108
same,"In vitro kinase assay Src, p-Glo(Y316)/Glo",[2]; Mal-CoA 0.1 mM,1.011 and 0.7856 and 0.936
same,"In vitro kinase assay Src, p-Glo(Y316)/Glo, Mean",[2]; Mal-CoA 0.5 mM,0.93
same,"In vitro kinase assay Src, p-Glo(Y316)/Glo",[2]; Mal-CoA 0.5 mM,1.127 and 0.8462 and 0.8162
same,"In vitro kinase assay Src, p-Glo(Y316)/Glo, Mean",[2]; Mal-CoA 1 mM,0.7653
same,"In vitro kinase assay Src, p-Glo(Y316)/Glo",[2]; Mal-CoA 1 mM,0.7803 and 0.7329 and 0.7827
same,"In vitro kinase assay Src, p-Glo(Y316)/Glo, Mean",[2]; Mal-CoA 2.5 mM,0.5664
same,"In vitro kinase assay Src, p-Glo(Y316)/Glo",[2]; Mal-CoA 2.5 mM,0.5574 and 0.682 and 0.4598
same,"In vitro kinase assay Src, p-Glo(Y316)/Glo, Mean",[2]; Mal-CoA 5 mM,0.4682
same,"In vitro kinase assay Src, p-Glo(Y316)/Glo",[2]; Mal-CoA 5 mM,0.5068 and 0.3824 and 0.5156
C/C=C/C/C=C/CCC(=O)[C@H]1O[C@H]1C(N)=O [cerulenin],"Mal-K/Adh1, Mean",[3]; acc1S1157A yeast,8.735
same,"Mal-K/Adh1, Mean",[3]; wt yeast,8.631
same,mTORC1 activity in MCF-7,[4],downregulates
same,"p-Ypk1(T662)/Ypk1, Mean",[5]; acc1S1157A yeast,1.9821
same,"p-Ypk1(T662)/Ypk1, Mean",[5]; wt yeast,2.002
same,phosphorylation of Ypk1^T662 (TORC2 target residue),[5]; yeast,did not inhibit
same,"OPP assay (median fluorescence intensity of OPP Alexa Fluor 488, relative to DMSO), Mean","[6]; HEK293T, n = 6, Fig. 2l",0.7454
same,de novo protein synthesis,[6],decreased
same,"FASN, ACC1 and mTOR total protein levels",[7]; 4 h cerulenin,not affected
same,"FASN/Tubulin, Mean","[7]; ED Fig. 3l, relative to DMSO",1.005
same,"ACC1/Tubulin, Mean","[7]; ED Fig. 3m, relative to DMSO",1.011
same,"mTOR/Tubulin, Mean","[7]; ED Fig. 3n, relative to DMSO",1.067
same,"GFP/Adh1 (relative Mal-CoA levels), Mean",[8]; 20 μM cerulenin 2h,2.242
same,"GFP/Adh1 (relative Mal-CoA levels), Mean",[8]; 20 μM cerulenin 3h,5.039
same,"GFP/Adh1 (relative Mal-CoA levels), Mean",[8]; 20 μM cerulenin 4h,7.957
same,lysine malonylation of immunopurified human FASN,"[9]; cerulenin-treated (50 μM, 4 h) vs control",malonylation increasing further
same,malonylation of immunopurified human mTOR,"[9]; control or cerulenin-treated (50 μM, 4 h)",unable to detect malonylation
same,lysine malonylation of immunopurified yeast Fas1,"[10]; cerulenin-treated (10 μM, 2 h) vs control",malonylation increasing further
same,malonylation of immunopurified yeast Tor1,"[10]; control or cerulenin-treated (10 μM, 2 h)",unable to detect malonylation
